Data: PMC3357532, “Intracellular Loop 2 Peptides of the Human 5HT1a Receptor are Differential Activators of Gi” (International Journal of Peptides, 2012)
Where two headings read alike, the source gives them in different places. Where no end group is shown, it is not given here.

Legend:
[1] = test system: CHO cells expressing the human 5HT1aR; assay: Forskolin-stimulated cAMP production (EIA); format: cell-based; conditions: for [cAMP] (SEM), relative to FSK-stimulated control: 30 uM FSK, 100 uM IBMX, 20 min 37°C, control = 100; for FSK stimulated cAMP (%): Figure 5, IBMX, FSK control = 100
Procedure: CHO cells were cultured to confluency in 12- or 24-well plates. Medium was aspirated, and the cells were rinsed twice in warm, serum-free F-12 medium. Cells were incubated for 20 min. at 37°C in 0.5 mls of serum-free F-12 medium containing 100 uM isobutylmethylxanthine (IBMX) and the following substances (final concs.) alone or in combination (see Figures 3 and 5): 30 μM forskolin (FSK; for all treatments); 1 μM 5-HT; peptide concentrations as noted in figure legends. Reactions were stopped by aspiration of medium and addition of 0.5 mL of 100 mM HCl. After 10 min., well contents were removed and centrifuged at 4000 rpm. Supernatants were diluted in 100 mM HCl, and cAMP was quantified directly in a microplate format by enzyme immunoassay (EIA) with a kit from Assay Designs (Ann Arbor). Triplicate-independent samples were assayed.

[2] = test system: Gi in H5-HT1aR membranes from transfected CHO cells; assay: [35S]GTPγS incorporation into Gi; format: biochemical, human; conditions: for GTP Incorp. (SEM), γ-[35S]-GTP into Gi, percent of control: peptide 30 uM (Figure 2), basal control = 100, 30 min 30°C
Procedure: H5-HT1aR membranes from transfected CHO cells were incubated with 5-HT (0.1 μM) and/or peptide concentrations as noted in figure legends (see Figures 2 and 4) and the following incubation mixture: 20 mM HEPES buffer, pH 7.4, 5 mM MgCl2, 1 mM EDTA, 1 mM DTT, 100 mM NaCl, 100 uM GDP, 10 μM pargyline, 0.2 mM ascorbate, and 0.1 nM [35S]GTPγS [53, 58]. Mixtures were incubated for 30 min. at 30°C, and were terminated by dilution in cold buffer. The mixture was filtered on GF/C filters, rinsed twice in buffer, dried and counted by liquid scintillation. All values reported in are for specific binding (total nonspecific) of triplicates. Nonspecific binding was determined in the presence of cold γ-S-GTP (10 uM). Negative control is the above mixture minus test drug or 5HT. Positive control contains 5HT.

H5-HT1aR [3] = target: T1, H5-HT1aR (Homo sapiens, UniProt P08908); conditions: cited from earlier work
T1 construct: expressed in transfected cells; host or cells: CHO cells (Chinese hamster ovary), crude membranes
T1 sequence (P08908 1-422): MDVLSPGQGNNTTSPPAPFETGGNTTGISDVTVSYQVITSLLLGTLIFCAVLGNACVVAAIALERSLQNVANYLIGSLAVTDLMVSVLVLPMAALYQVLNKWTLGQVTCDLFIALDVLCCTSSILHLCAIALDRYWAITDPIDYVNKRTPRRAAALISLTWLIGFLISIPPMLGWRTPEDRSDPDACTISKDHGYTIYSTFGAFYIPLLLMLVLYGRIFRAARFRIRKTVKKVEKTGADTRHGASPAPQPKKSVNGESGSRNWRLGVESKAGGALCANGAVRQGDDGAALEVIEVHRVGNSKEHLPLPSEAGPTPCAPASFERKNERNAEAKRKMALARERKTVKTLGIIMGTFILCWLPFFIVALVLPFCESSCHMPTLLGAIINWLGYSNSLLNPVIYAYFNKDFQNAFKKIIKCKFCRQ
Text: (§1) Table 2 ic2 Peptide mimic effect on [3H]8-OH-DPAT binding. All binding inhibition values are percent of control agonist (ag.) bound. The upper portion of the table is for peptides nearer the C-terminus, including P11 from Thiagaraj et al., 2007 [53]. These peptides decreased the specific high affinity binding of 5HT1aR agonist [^3H]-8-OH-DPAT by 50% at the given concentration. The lower portion | column: Conc. (uM); % cont. ag, bound, (SEM) || Table 3 ic3 Peptide mimic coupling and signal transduction data. Summary of data generated for all ic3 experiments with P12 and P13. P1 is included as a reference, from Hayataka et al., 1998 [49]. Nominal values for control agonist binding were 400 fmoles/mg protein. | column: Agonist (%) inhibition

[4] = test system: CHO cells expressing the human 5HT1aR; conditions: cited from earlier work
Text: as §1, with “[cAMP]” for “Conc. (uM); % cont. ag, bound,”, “% Inhibition of FSK-stimulated cAMP” for “Agonist (%) inhibition”

[5] = test system: Gi in H5-HT1aR membranes from transfected CHO cells; conditions: cited from earlier work
Text: as §1, with “GTP Incorp.” for “Conc. (uM); % cont. ag, bound,”, “[35S]-γ-S-GTP incorporation% above conro” for “Agonist (%) inhibition”

H5-HT1aR [6] = target: T1, H5-HT1aR; assay: Inhibition of agonist [3H]8-OH-DPAT binding (measure of receptor-G-protein coupling)
Procedure: Cells were trypsinized and centrifuged at low speed in ice-cold medium. The pellet was resuspended in ice-cold Earle's Balanced Salt Solution followed by centrifugation. Cells were resuspended in 10 mL of ice-cold binding buffer (50 mM Tris, 4 mM CaCl2, 10 μM pargyline, and pH 7.4), homogenized with Teflon-glass, and centrifuged for 450,000 g-min. at 4°C. For a crude membrane preparation, the pellet was resuspended in 30 mL of ice-cold binding buffer, homogenized on Teflon-glass and then by Polytron (setting 4) for 5 seconds, and stored on ice and assayed within the next 1.5 hours.
Binding of the agonist [3H]8-OH-DPAT ([3H]8-hydroxy-2-(di-n-propylamino)tetralin) to H5-HT1aR followed well-characterized protocols. Radioligands were purchased from New England Nuclear (NEN), Boston, MA, and 1 mL reaction mixtures, in triplicate, were incubated for 30 min. in a 30°C shaker. The 1 mL mixture was 700 μL of receptor preparation; 100 μL of binding buffer (for total binding) or 10 μM 5-HT (for nonspecific binding), 100 μL of the tritiated agent (concentration of 0.5 nM [3H] 8-OH-DPAT), and 100 μL of peptide or binding buffer in the case of controls.
Reactions were stopped by addition of 4 mL of ice-cold 50 mM Tris buffer, pH 7.4, and vacuum filtration on glass fiber filters (Whatman GF/B). Filters were rinsed twice in 5 mL of ice-cold Tris buffer, dried, and counted in 5 mL of Ecoscint (National Diagnostics) liquid scintillation fluid in a Beckman LS 6500. Homogenates were assayed for protein to maintain a nominal value of 50 μg protein per filter. All tubes were run in triplicate.

[7] = target: Gi (G protein coupled to the human 5HT1a receptor in CHO cells) (Chinese hamster (endogenous in CHO))
[8] = target: Gi (G protein coupled to the human 5HT1a receptor in CHO cells) (Chinese hamster (endogenous in CHO)); remark: listed apart in the source
[9] = CHO H5-HT1aR membranes, 0.5 nM [3H]8-OH-DPAT, 30 min 30°C, shallow curves, read-out: Conc. (uM) at which specific high affinity [3H]8-OH-DPAT binding is decreased by 50% (IC50)

In the case of `NCCc1c[nH]c2ccc(O)cc12` [Peptide 5HT, 5-hydroxytryptamine, reference compound], the “[cAMP] (SEM), relative to FSK-stimulated control” value ([1]; 1 uM 5-HT) is reported as 21 (4) % and the “FSK stimulated cAMP (%)” value ([1]; 5HT alone (1 uM per method)) is reported as 24 ± 1%.

For “DPIDYVNKRT [Peptide P25, ic2 loop peptide mimic of H5HT1aR]”, the “[cAMP] (SEM), relative to FSK-stimulated control” value ([1]; peptide 30 uM (Figure 3)) was 64 (3) % and the “GTP Incorp. (SEM), γ-[35S]-GTP into Gi, percent of control” value (“GTP Incorp. (SEM) … percent of control” below) [2] was 126 (10) %.

In the case of “IALDRYWAITD [Peptide P11, ic2 N-terminal (TM3/ic2) peptide mimic of H5HT1aR from a previous study, Thiagaraj et al., 2007]”, the IC50 (H5-HT1aR [3]; CHO H5-HT1aR membranes, ref Thiagaraj et al., 2007 [53], read-out: Conc. (uM) at which specific high affinity [3H]8-OH-DPAT binding is decreased by 50% (IC50)) is listed as 7 µM, the “[cAMP] (SEM), relative to FSK-stimulated control” value ([4]; peptide 30 uM (Figure 3), 30 uM FSK, IBMX, ref Thiagaraj et al., 2007 [53], SEM) is listed as 87 (8) % and the “GTP Incorp. (SEM) … percent of control” value ([5]; peptide 30 uM (Figure 2), ref Thiagaraj et al., 2007 [53], SEM) is listed as 100 (3) %.

For “IDYVNKRTPR [Peptide P26, ic2 loop peptide mimic of H5HT1aR]”, the “[cAMP] (SEM), relative to FSK-stimulated control” value ([1]; peptide 30 uM (Figure 3)) was 100 (5) % and the “GTP Incorp. (SEM) … percent of control” value [2] was 111 (9) %.

For IFRAARFRIRKTVKK [P1*], the IC50 (H5-HT1aR [3]; [3H]8-OH-DPAT, ref Hayataka et al., 1998 [49], read-out: Agonist (%) inhibition: concentration giving 50% (IC50)) is given as 3 µM, the inhibition (H5-HT1aR [3]; peptide 3 uM, ref Hayataka et al., 1998 [49], read-out: Agonist (%) inhibition) is given as 50% and the inhibition ([4]; peptide 10 uM, ref Hayataka et al., 1998 [49], read-out: % Inhibition of FSK-stimulated cAMP) is given as 10%. For the same molecule, the “[35S]-γ-S-GTP incorporation% above conro” value ([5]; peptide 1 uM, ref Hayataka et al., 1998 [49]) was 30%.

In the case of ITDPIDYVNK [Peptide P24], the “[cAMP] (SEM), relative to FSK-stimulated control” value ([1]; peptide 30 uM (Figure 3)) is reported as 45 (7) % and the “GTP Incorp. (SEM) … percent of control” value [2] is reported as 146 (17) %.

With “KTVKKVEKTG [Peptide P12, ic3 peptide mimic of H5HT1aR]” the inhibition (H5-HT1aR [6]; peptide 30 uM, maximum inhibition possible with the highest soluble concentration) was 28%, the “Change in intracellular cAMP concentration (in words)” value ([1]; FSK-stimulated, peptide 30 uM (Figure 5)) was “not altered” and the “FSK stimulated cAMP (%)” value ([1]; peptide alone 30 uM) was 100 ± 6%. For the same molecule, the inhibition ([1]; peptide 30 uM, read-out: % Inhibition of FSK-stimulated cAMP) was 0% and the “[35S]-γ-S-GTP incorporation% above conro” value ([2]; peptide 30 uM) was 24%.

Molecule LDRYWAITDP [Peptide P21] has an IC50 (H5-HT1aR [6]; [9]) of 15 µM.

In the case of RYWAITDPID [Peptide P22], the IC50 (H5-HT1aR [6]; [9]) is reported as 16 µM.

VKKVEKTGAD [Peptide P13] gave an IC50 (H5-HT1aR [6]; [3H]8-OH-DPAT, if 50% is listed, the concentration is the IC50, read-out: Agonist (%) inhibition: concentration giving 50% (IC50)) of 15 µM and an inhibition (H5-HT1aR [6]; peptide 15 uM) of 50%.

With WAITDPIDYV [Peptide P23] the IC50 (H5-HT1aR [6]; [9]) was 30 µM.

For “YVNKRTPRPR [Peptide P27, ic2 loop peptide mimic of H5HT1aR, C-terminal end]”, the “[cAMP] (SEM), relative to FSK-stimulated control” value ([1]; peptide 30 uM (Figure 3)) was 132 (6) % and the “GTP Incorp. (SEM) … percent of control” value [2] was 130 (7) %.

B1: P22, ic2 loop peptide mimic of the human 5HT1a receptor (peptide)
peptide: RYWAITDPID
For B1, the IC50 of agonist inhibition: peptide concentration at which specific [3H]8-OH-DPAT binding to H5-HT1aR in CHO membranes falls to about 50% of control (uncoupling of receptor from G protein) [7] was 16 µM.

B2: P21, ic2 loop peptide mimic of the human 5HT1a receptor (peptide)
peptide: LDRYWAITDP
Molecule B2 has an IC50 of agonist inhibition: peptide concentration at which specific [3H]8-OH-DPAT binding to H5-HT1aR in CHO membranes falls to about 50% of control (uncoupling of receptor from G protein) [7] of 15 µM.

B3: P23, ic2 loop peptide mimic of the human 5HT1a receptor (peptide)
peptide: WAITDPIDYV
B3 gave an IC50 of agonist inhibition: peptide concentration at which specific [3H]8-OH-DPAT binding to H5-HT1aR in CHO membranes falls to about 50% of control (uncoupling of receptor from G protein) [7] of 30 µM.

B4: P12, ic3 loop peptide mimic of the human 5HT1a receptor (peptide)
peptide: KTVKKVEKTG
B4 gave a % inhibition of FSK-stimulated cAMP at 30 uM peptide, CHO cells expressing H5HT1aR [8] of -0 % inhibition, a [35S]-γ-S-GTP incorporation into Gi, % above control, at 30 uM peptide, CHO H5HT1aR membranes (% above control) [8] of 24 and an agonist ([3H]8-OH-DPAT) % inhibition at 30 uM peptide, H5-HT1aR in CHO membranes (maximum inhibition possible with the highest soluble concentration; uncoupling of receptor from G protein) [8] of 28 % inhibition.

B5: P13, ic3 loop peptide mimic of the human 5HT1a receptor (peptide)
peptide: VKKVEKTGAD
Work on B5 yielded a % inhibition of FSK-stimulated cAMP at 30 uM peptide, CHO cells expressing H5HT1aR (negative: cAMP increased) [8] of -24 % inhibition, an IC50 of agonist inhibition: peptide concentration giving 50% inhibition of [3H]8-OH-DPAT binding to H5-HT1aR in CHO membranes (uncoupling of receptor from G protein) [8] of 15 µM and a [35S]-γ-S-GTP incorporation into Gi, % above control, at 30 uM peptide, CHO H5HT1aR membranes (% above control) [8] of 12.
